# In paper PMC13110364, “Design, Synthesis, and Biological Evaluation of Novel Triazine‐Based Dual Histone Deacetylase/phosphatidylinositol 3‐kinase Inhibitors for Breast Cancer Therapy” (Chemmedchem, 2026):
# Tests used:
# class I HDAC (acetyl H3) = experiment: Western blot, acetyl H3 in treated cells; type: cell-based; conditions: LY2, JIMT1, MDA‐MB‐231 cells, 24 h; seen at 10 µM
# Experimental: FIGURE 4 Cell‐based evaluation of compounds 5a– 5f. Dose‐dependent effects of compound treatment (5a‐5f) on breast cancer cell viability across JIMT1 (A), MDA‐MB‐231 (B), and LY2 (C). Cell‐based evaluation of HDAC and PI3K inhibition by compounds 5b and 5f by Western blot. JIMT1 cells were treated for 24 h with compounds 5b (D) and 5f (E) at the concentrations of 1, 3, and 10 µM or with vehicle control (0.1% DMSO). Protein expression levels were analyzed by western blot using antibodies against acetylated α‐tubulin, acetyl H3 (H3K9Ac and H3K14Ac), phospho‐AKT (p‐AKT), and total AKT. GAPDH served as a loading control.
# To investigate if 5b and 5f were acting as multitarget inhibitors, we evaluated the modulation of HDAC6 and PI3K signaling pathways by western blot analysis (Figure 4D,E). […]
# Total protein samples were extracted from treated cells using a lysis buffer containing 0.1% IGEPAL CA‐630 (I8896, Merck), 0.5% deoxycholic acid (D2510, Merck), and 0.1% SDS (L3771, Merck), freshly supplemented with protease and phosphatase inhibitor cocktail (78442, Thermo Fisher Scientific). Protein concentrations were quantified using the Pierce BCA Protein Assay Kit (23227, Thermo Fisher Scientific) according to the manufacturer's instructions. […] Chemiluminescence signals were detected using the Amersham Imager 680 Imaging System. […]
# HDAC10 = HDAC10 (Homo sapiens, UniProt Q969S8); experiment: Selectivity profile, single dose 0.5 µM, HDAC10; type: biochemical; conditions: remaining enzyme activity; single‐dose duplicate mode at 0.5 μM; read-out: Enzyme % activity (relative to DMSO controls) at 0.5 µM, HDAC10
# HDAC10, sequence (Q969S8 whole entry, canonical isoform): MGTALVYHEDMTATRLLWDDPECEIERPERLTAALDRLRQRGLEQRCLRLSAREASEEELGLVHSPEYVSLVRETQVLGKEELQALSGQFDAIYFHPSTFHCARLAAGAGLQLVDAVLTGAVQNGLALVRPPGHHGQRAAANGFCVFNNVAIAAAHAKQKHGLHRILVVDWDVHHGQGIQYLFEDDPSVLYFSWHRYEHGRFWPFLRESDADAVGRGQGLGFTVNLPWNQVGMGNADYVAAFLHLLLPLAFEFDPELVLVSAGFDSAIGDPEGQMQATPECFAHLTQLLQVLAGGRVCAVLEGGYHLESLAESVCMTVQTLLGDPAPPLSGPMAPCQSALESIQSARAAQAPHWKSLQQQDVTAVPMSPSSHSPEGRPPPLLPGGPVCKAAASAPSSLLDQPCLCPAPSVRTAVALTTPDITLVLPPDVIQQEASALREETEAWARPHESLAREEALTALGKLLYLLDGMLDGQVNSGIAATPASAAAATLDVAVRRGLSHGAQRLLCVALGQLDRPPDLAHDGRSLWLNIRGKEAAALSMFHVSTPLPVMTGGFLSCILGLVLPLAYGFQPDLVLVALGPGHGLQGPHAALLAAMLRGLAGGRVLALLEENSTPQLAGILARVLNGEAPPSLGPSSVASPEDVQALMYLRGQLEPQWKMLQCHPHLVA
# Experimental: (§1) The inhibitory profiles of 5b and 5f were evaluated against selected HDAC isoforms (HDAC1, HDAC3, HDAC4, HDAC8, and HDAC10) and PI3K isoforms (PI3Kδ, PI3Kγ, and PI3Kβ) at a fixed concentration of 0.5 µM (Table 3). […] While we explored the phenyl ring in the linker region to achieve selectivity for the HDAC6 isoform, we still observed HDAC class I inhibition. […] It is important to highlight that PI3Kδ is mainly expressed in hematopoietic system and plays roles in leukocyte signaling, T‐cell activation, and immune cell trafficking. FDA‐approved drug idelalisib is a selective PI3Kδ inhibitor in B‐cell malignancies; however, this drug is also related to disruption of the immune system, which can lead to immune manifestations, such as infections. In addition, while isoform‐selective PI3K inhibitors are well tolerated, pan‐inhibition of PI3K is less expected that compensatory mechanisms by the action of other PI3Ks can take place. Thus, a more balanced profile of PI3K inhibition can lead to an overall lack of toxicity of PI3K inhibitors.
# HDAC1 = HDAC1 (Homo sapiens, UniProt Q13547); experiment: Selectivity profile, single dose 0.5 µM, HDAC1; type: biochemical; conditions: remaining enzyme activity; single‐dose duplicate mode at 0.5 μM; read-out: Enzyme % activity (relative to DMSO controls) at 0.5 µM, HDAC1
# HDAC1, sequence (Q13547 whole entry): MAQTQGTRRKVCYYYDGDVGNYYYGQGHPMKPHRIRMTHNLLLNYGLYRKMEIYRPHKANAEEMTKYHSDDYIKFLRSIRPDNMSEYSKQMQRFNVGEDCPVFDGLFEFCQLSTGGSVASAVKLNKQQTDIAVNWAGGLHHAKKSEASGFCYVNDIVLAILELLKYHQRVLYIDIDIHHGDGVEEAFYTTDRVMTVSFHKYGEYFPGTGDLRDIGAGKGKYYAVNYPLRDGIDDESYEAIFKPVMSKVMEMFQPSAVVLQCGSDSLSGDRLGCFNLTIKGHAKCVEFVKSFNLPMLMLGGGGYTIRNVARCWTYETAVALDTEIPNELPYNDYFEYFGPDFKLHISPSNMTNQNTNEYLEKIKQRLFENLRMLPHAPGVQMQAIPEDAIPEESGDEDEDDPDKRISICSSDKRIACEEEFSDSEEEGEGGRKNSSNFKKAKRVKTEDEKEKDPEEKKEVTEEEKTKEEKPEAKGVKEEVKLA
# Experimental: as §1
# PI3Kγ = PI3Kγ (Homo sapiens, UniProt P48736); experiment: Selectivity profile, single dose 0.5 µM, PI3Kγ; type: biochemical; conditions: remaining enzyme activity; single‐dose duplicate mode at 0.5 μM; read-out: Enzyme % activity (relative to DMSO controls) at 0.5 µM, PI3Kγ
# PI3Kγ, sequence (P48736 whole entry): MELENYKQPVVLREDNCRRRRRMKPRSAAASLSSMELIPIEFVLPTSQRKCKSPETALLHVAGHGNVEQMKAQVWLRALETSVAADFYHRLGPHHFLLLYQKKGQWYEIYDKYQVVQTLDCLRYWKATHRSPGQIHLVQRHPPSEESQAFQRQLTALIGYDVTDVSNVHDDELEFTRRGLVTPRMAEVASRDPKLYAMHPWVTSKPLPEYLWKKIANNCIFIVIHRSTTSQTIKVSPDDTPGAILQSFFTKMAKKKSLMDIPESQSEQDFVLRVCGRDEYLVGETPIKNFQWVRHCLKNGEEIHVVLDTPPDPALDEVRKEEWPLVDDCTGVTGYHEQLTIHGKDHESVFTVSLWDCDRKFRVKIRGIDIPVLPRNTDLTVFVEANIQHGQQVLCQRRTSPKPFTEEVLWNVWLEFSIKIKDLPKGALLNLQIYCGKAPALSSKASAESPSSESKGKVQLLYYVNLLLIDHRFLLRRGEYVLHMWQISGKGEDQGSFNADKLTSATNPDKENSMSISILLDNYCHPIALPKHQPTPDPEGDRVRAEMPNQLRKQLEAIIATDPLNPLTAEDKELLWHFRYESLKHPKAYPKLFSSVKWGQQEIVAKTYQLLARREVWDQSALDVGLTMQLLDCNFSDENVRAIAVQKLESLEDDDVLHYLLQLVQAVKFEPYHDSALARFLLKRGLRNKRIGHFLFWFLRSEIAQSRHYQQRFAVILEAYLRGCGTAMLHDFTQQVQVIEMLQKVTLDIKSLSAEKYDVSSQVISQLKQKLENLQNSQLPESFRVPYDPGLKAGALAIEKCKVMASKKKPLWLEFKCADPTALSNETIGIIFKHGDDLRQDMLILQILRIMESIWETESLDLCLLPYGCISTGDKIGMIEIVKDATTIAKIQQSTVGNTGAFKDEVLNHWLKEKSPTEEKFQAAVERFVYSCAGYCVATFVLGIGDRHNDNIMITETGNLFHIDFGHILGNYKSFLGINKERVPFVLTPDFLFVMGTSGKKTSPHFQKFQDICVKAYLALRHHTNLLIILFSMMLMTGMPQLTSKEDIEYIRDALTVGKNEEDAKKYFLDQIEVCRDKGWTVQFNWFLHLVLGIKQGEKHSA
# Experimental: as §1
remaining activity at 0.5 µM (HDAC10),remaining activity at 0.5 µM (HDAC1),remaining activity at 0.5 µM (PI3Kγ),Structure (SMILES),"Acetylation of H3, western blot (class I HDAC (acetyl H3))"
28.1%,35.7%,77.7%,"COc1ccc(-c2nc(NCc3ccc(C(=O)NO)cc3)nc(N3CCOCC3)n2)cn1 [Compound 5f, N‐Hydroxy‐4‐(((4‐(6‐Methoxypyridin‐3‐yl)‐6‐Morpholino‐1,3,5‐Triazin‐2‐yl)Amino)Methyl)Benzamide]",increased levels of acetylation of H3
15.9%,35.9%,29.2%,"O=C(NO)c1ccc(CNc2nc(-c3cccc(O)c3)nc(N3CCOCC3)n2)cc1 [Compound 5b, N‐Hydroxy‐4‐(((4‐(3‐Hydroxyphenyl)‐6‐Morpholino‐1,3,5‐Triazin‐2‐yl)Amino)Methyl)Benzamide]",increased levels of acetylation of H3
